The source of these data is patent US12134601B2, “Compounds for inhibiting LY6K and methods of using same” (The Henry M. Jackson Foundation for the Advancement of …, priority 2017, dated 2024).

In one series the target is T1, human Ly6K protein (Homo sapiens, UniProt Q17RY6).
T1 construct: correspond to residues 18-138, which constitute the mature form of Ly6K; His tag (N); made in house; host or cells: E. coli BL21DE
T1 sequence (Q17RY6 18-138): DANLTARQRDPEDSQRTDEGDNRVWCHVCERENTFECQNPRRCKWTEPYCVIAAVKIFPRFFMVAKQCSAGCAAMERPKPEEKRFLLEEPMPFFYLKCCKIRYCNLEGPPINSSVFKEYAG
The series can be described thus: Surface plasmon resonance binding to immobilized Ly6K (Biacore T100). As for the experimental part: (§1) FIG. 11: Small molecule binders of Ly6K. (A) Mature form of Ly6E, Ly6D and Ly6K were cloned in pET24a N-term His tag vector (Epoch Biosciences); expressed in BL21DE E. coli; purified recombinant protein was prepared using histidine column in using a batch purification method and eluted in 500 mM imidazole PBS, dialyzed in PBS. 5 μl of eluate was run on the 15% SDS-PAGE showing the purity with expected size protein of single band. (B) Structure of NSC243928. (G) Structure of NSC11150. (C-F; H-K) Representative surface plasmon resonance (SPR) sensorgrams show time on X-axis and SPR binding response on Y-axis. […] The corresponding data for NSC11150 are shown in corresponding lower panel.
We used surface plasmon resonance to identify small molecule binders of Ly6K. We screened a panel of 2000 small molecules, obtained from the Developmental Therapeutic Program (DTP, NCI). […] These five molecules were further tested for their ability to induce cell death, TGFβ1/Smad2/3 phosphorylation, IFNγ/Stat1 phosphorylation and PD-L1 protein expression. NSC243928 and NSC11150 were selected for further study on the basis of specificity and selectivity in bio-assays and structural flexibility, which allow future modifications required for in-depth studies (described in FIG. 11). The small molecule NSC243928 has been previously used in an in vivo anti-tumor screen by the NCI on a L1210 leukemia model in BDF1 syngeneic mice, a standard model used between 1955 and 1975. The average survival in this tumor model is 2-3 weeks. Treatment with NSC243928 increased survival benefit from 30% to 100% in a dose dependent manner. […] NSC11150 was not tested in in-vivo or in-vitro anti-tumor screens. […] As discussed infra, NSC243928 and NSC11150 inhibit TGFβ and PD-L1 pathways in a Ly6K dependent manner, indicating a mechanistic basic for the novel activities of these compounds (please see FIG. 11, 12). These experiments provide proof of the principle that small molecule targeting of Ly6K will have functional consequences and potentially lead to a better outcome in cancer treatment. […]

In a further series the target is T2, Ly6E (Homo sapiens, UniProt Q16553).
T2 construct: Mature form of Ly6E, Ly6D and Ly6K were cloned in pET24a N-term His tag vector; His tag (N); made in house; host or cells: E. coli BL21DE
T2 sequence (Q16553 21-101 limits assumed): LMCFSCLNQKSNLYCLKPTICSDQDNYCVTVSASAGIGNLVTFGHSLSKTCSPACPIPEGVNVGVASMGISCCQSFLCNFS
The series can be described thus: Surface plasmon resonance binding to Ly6E. As for the experimental part:
as §1
(§2) We performed a surface plasmon resonance assay using the Biacore T100 by immobilizing the purified human Ly6K protein on the surface of a CM5 chip and screening the binding with a small molecule library containing 2000 compounds (Developmental Therapeutics Program, NCI). An initial screening of molecules was performed at 1 or 10 μM compound, based on solubility. We used a model that compares the actual binding maximum (RUactual) with the theoretical binding maximum (RUtheor). […] Hits (RUactual to RUtheor of 0.7-2.0) were then reviewed by a team of medicinal chemists and those with structural potential were selected for further study. […]

A further series concerns the target T3, Ly6D (Homo sapiens, UniProt Q14210).
T3 construct: Mature form of Ly6E, Ly6D and Ly6K were cloned in pET24a N-term His tag vector; His tag (N); made in house; host or cells: E. coli BL21DE
T3 sequence (Q14210 21-98 limits assumed): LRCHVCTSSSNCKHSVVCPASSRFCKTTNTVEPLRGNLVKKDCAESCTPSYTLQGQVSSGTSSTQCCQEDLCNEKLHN
The series can be described thus: Surface plasmon resonance binding to Ly6D. As for the experimental part:
as §1, §2
A general note: SPR reads the build-up and loss of mass on a sensor chip optically.

The test system of series [1] is MDA-MB-231 cells (control and Ly6K knockdown). Nature of the series: Cell titer assay of cell growth / cell death. It counts as cell-based, human. The conditions noted are these: for Cell growth: 72 hours. As for the experimental part: FIG. 12: Effect of small molecule binders of Ly6K. […] Cell titer assay was performed to measure cell growth. (B) Cells were serum starved and treated with 100 ng/ml IFNγ with 2 μM drugs. PD-L1 was measure in live cells (using a zombie live-dead stain) as described in FIG. 3A. The graph was plotted from three experiments. (C, D) Indicated cells were allowed to attach, serum starved overnight and then treated with TGFβ (C) or IFNγ (D) in the presence of 2 μM drug for 30 minutes and western blot analysis was performed. The *** represents p<0.0005 and NS=non-significant in a two-tailed student T-test.
(§3) NSC243928 inhibited the TGFβ1 induced phosphorylation of Smad2/3; NSC11150 had no effect on TGFβ1/Smad2/3 signaling (FIG. 12C). NSC11150 inhibited IFNγ induced phosphorylation of Stat1; NSC243928 had no effect on IFNγ/Stat1 signaling (FIG. 12D).

The next series has as its system PD-L1. Nature of the series: IFNγ-induced PD-L1 protein expression in live cells (flow cytometry). Type of series: cell-based, human. The conditions noted are these: control cells, 100 ng/ml IFNγ, 2 μM drug. As for the experimental part: FIG. 3: Ly6K is required for IFNγ/PD-L1 pathway. (A) Indicated cells were serum starved prior to treatment with IFNγ 100 ng/ml overnight. Cells were labeled with anti-PD-L1 BV540 antibody or isotype control antibody prior to fixation to assess the cell surface expression of PD-L1 protein. Percentage of high PD-L1 cells were plotted in a bar graph from three different experiments and subjected to a two tailed student T-test, wherein p<0.05 is considered significant. (B) Western blotting analysis for indicated proteins. (C) Hypothesized effect of Ly6K on IFNγ/Stat1 pathway leading to increased PD-L1.
FIG. 12: Effect of small molecule binders of Ly6K. (A) Indicated cells were seeded and allowed to attach overnight, then treated with 2 μM drugs for 72 hours. Cell titer assay was performed to measure cell growth. (B) Cells were serum starved and treated with 100 ng/ml IFNγ with 2 μM drugs. PD-L1 was measure in live cells (using a zombie live-dead stain) as described in FIG. 3A. The graph was plotted from three experiments. (C, D) Indicated cells were allowed to attach, serum starved overnight and then treated with TGFβ (C) or IFNγ (D) in the presence of 2 μM drug for 30 minutes and western blot analysis was performed. The *** represents p<0.0005 and NS=non-significant in a two-tailed student T-test. […]

In a further series the test system is TGFβ1/Smad2/3 signaling. Nature of the series: TGFβ1-induced Smad2/3 phosphorylation (western blot). It counts as cell-based, human. The conditions noted are these: 2 μM drug, 30 minutes. As for the experimental part: (§4) FIG. 12: Effect of small molecule binders of Ly6K. (A) Indicated cells were seeded and allowed to attach overnight, then treated with 2 μM drugs for 72 hours. Cell titer assay was performed to measure cell growth. (B) Cells were serum starved and treated with 100 ng/ml IFNγ with 2 μM drugs. PD-L1 was measure in live cells (using a zombie live-dead stain) as described in FIG. 3A. The graph was plotted from three experiments. (C, D) Indicated cells were allowed to attach, serum starved overnight and then treated with TGFβ (C) or IFNγ (D) in the presence of 2 μM drug for 30 minutes and western blot analysis was performed. The *** represents p<0.0005 and NS=non-significant in a two-tailed student T-test.
as §3

Another series has as its system IFNγ/Stat1 signaling. The series can be described thus: IFNγ-induced Stat1 phosphorylation (western blot). It counts as cell-based, human. The conditions noted are these: 2 μM drug, 30 minutes. As for the experimental part:
as §4, §3
A general note: In western blotting, separated proteins are transferred to a membrane and probed.

For the next series, the system named is 4T1 mammary tumor. Nature of the series: 4T1 mammary tumor growth in syngeneic mouse model. Type of series: in vivo, mice (Balb/c). The conditions noted are these: 5 mg/kg/i.p. after tumor establishment at 50-70 mm^3. The text has this:
FIG. 4: Ly6K is required for tumor growth in syngeneic mammary tumor models. (A) The qRT-PCR analysis using […] gene expression assay for mRNA levels in scrambled shRNA (Con) and Ly6K knockdown (Ly6K sh) cells. (B) The western blot analysis (cell signaling antibodies). (C) For 4T1 model, 20K cells/site in Balb/c mice and for E0771, 500K cells/site in C57BL/6 syngeneic mice were transplanted into lower mammary fat pad by subcutaneous injection (number of mice 10 per cell line pair). Tumor measurements were performed using a Vernier caliper. The tumor volumes were calculated using equation 1⁄2*length*(width*width). ** indicates p<0.001 and NS=non-significant (p>0.05) in a two tailed student T-test. FIG. 5: Effect of small molecules on in vivo tumor growth. (A) NCI data-Indicated doses of NSC243928 in saline were given by intraperitoneal route (i.p.) every day for 9 days to BIDF syngeneic mice carrying […] leukemia cells. Each group has 6 mice. Mouse were monitored for 30 days after drug treatment. […] The ** represents p<0.005 in a two tailed student T-test. Each group has 10 mice. We used surface plasmon resonance to identify small molecule binders of Ly6K. We screened a panel of 2000 small molecules, obtained from the Developmental Therapeutic Program (DTP, NCI). […]

The nature of series [2]: Preliminary experiments for maximum tolerated dose. It counts as in vivo. The conditions noted are these: 5 mg/kg/ip.
In the next series the test system is L1210 leukemia. The conditions noted are these: up to 10 mg/kg/i.p.; cited from earlier work.

Each structure is given as a SMILES string.

By Kd is commonly meant the free concentration of one partner at which half of the binding sites on the other are occupied at equilibrium, for simple one-to-one binding. Consider `Oc1ccc(Cc2ccc(Cl)cc2)c(O)c1` [NSC11150, 4-(4-chlorobenzyl)benzene-1,3-diol], for which the “SPR binding response to Ly6K” value on human Ly6K protein is “binding response in dose dependent manner”. Further, on human Ly6K protein (SPR), the Kd is 1600 nM. Besides, the “SPR binding response to Ly6E” value on Ly6E is “don't show binding response”. On Ly6D, the “SPR binding response to Ly6D” value is recorded as “don't show binding response”. Moreover, the “Effect on cell death” value in series [1] (2 μM) is on record as “did not show significant effect”. In [1] (100 μM, both control and Ly6K knockdown cells), the Cell death result was “induced cell death”. Further, the PD-L1 protein expression entry in the series with PD-L1 is given as “inhibition of PD-L1 expression”. In the series with TGFβ1/Smad2/3 signaling, the “TGFβ1 induced phosphorylation of Smad2/3” value is “had no effect”. In the series with IFNγ/Stat1 signaling, the “IFNγ induced phosphorylation of Stat1” value was “inhibited”. Also, the “4T1 mammary tumor growth” value in the series on 4T1 mammary tumor is “suppress 4T1 mammary tumor growth”. For the same compound, the Therapeutic benefit result in series [2] is “therapeutic benefit”.
Consider `CCS(=O)(=O)Nc1ccc(Nc2c3ccccc3nc3ccccc23)c(OC)c1.CS(=O)(=O)O` [NSC243928, 4′-(9-Acridinylamino)-3′-methoxyethanesulfonanilide methanesulfonate], for which the “SPR binding response to Ly6K” value on human Ly6K protein is listed as “binding response in dose dependent manner”. Moreover, the “SPR binding response to Ly6E” value on Ly6E is “don't show binding response”. The “SPR binding response to Ly6D” value on Ly6D is given as “don't show binding response”. Also, the Cell growth result in [1] (Ly6K knockdown MDA-MB-231 cells, 2 μM) was “lost its activity”. Moreover, the Cell growth entry in series [1] (control MDA-MB-231 cells, 2 μM) is listed as “diminished the growth”. Also, the PD-L1 protein expression result with PD-L1 was “did not show significant effect”. Besides, the “TGFβ1 induced phosphorylation of Smad2/3” value in the series with TGFβ1/Smad2/3 signaling is recorded as “inhibited”. Further, in the series on IFNγ/Stat1 signaling, the “IFNγ induced phosphorylation of Stat1” value is recorded as “had no effect”. Also, the “4T1 mammary tumor growth” value in the series with 4T1 mammary tumor is on record as “suppress 4T1 mammary tumor growth”. Also, in series [2], the Therapeutic benefit result is given as “therapeutic benefit” and the Visible toxicity result is “no visible toxicity”. The Toxicity result with L1210 leukemia is on record as “not found to be toxic”.
